Test results as given in PubChem BioAssay (NCI).
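Following 48 hours of exposure in 96-well plates, responses at five concentrations were used to interpolate endpoints linearly. At the GI50, growth is halved. At the TGI there is no net growth.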

Columns and labels:
Assay in all cases: NCI anticancer screen, dose series, 48 h
[1] = system: SF-539 CNS
[2] = system: OVCAR-8 ovarian
[3] = system: OVCAR-3 ovarian
[4] = system: OVCAR-5 ovarian
[5] = system: HCC-2998 colon
[6] = system: DMS 273 small cell lung
[7] = system: KM20L2 colon
[8] = system: HOP-18 NSCLC
[9] = system: LXFL 529 NSCLC
[10] = system: MCF7 breast

Structure (SMILES)	TGI [1]	TGI [2]	TGI [3]	TGI [4]	TGI [5]	TGI [6]	TGI [7]	TGI [8]	TGI [9]	TGI [10]	GI50 [1]	GI50 [2]	GI50 [8]	GI50 [3]	GI50 [4]	GI50 [5]	GI50 [6]	GI50 [9]	GI50 [7]	GI50 [10]
COC(=O)C(CC(=O)c1c[nH]c2ccccc12)c1c[nH]c2ccccc12 (stereo not drawn)	39.5 µM	65 µM	> 10 µM	42.1 µM	45.5 µM	27.6 µM	34 µM	–	–	–	–	–	–	–	–	–	–	–	–	–
ClCc1ccc(C2OCCO2)cc1	> 56.7 µM	36.1 µM	49.2 µM	> 63.9 µM	32 µM	45.3 µM	> 69 µM	> 92.2 µM	37.2 µM	–	–	–	–	–	–	–	–	–	–	–
CC1=NOC(=O)C1N=Nc1ccc(Br)c(C)c1 (stereo not drawn)	44.6 µM	32.7 µM	33.6 µM	72 µM	60.6 µM	45.6 µM	> 100 µM	19.8 µM	29.1 µM	–	–	–	–	–	–	–	–	–	–	–
N#Cc1c(C[n+]2ccccc2)c2ccccc2oc1=O	> 100 µM	> 100 µM	> 100 µM	> 100 µM	> 100 µM	> 100 µM	> 100 µM	–	> 100 µM	–	–	–	–	–	–	–	–	–	–	–
Nc1ccc(C(=O)CC2(O)C(=O)Nc3c(Cl)cc(Cl)cc32)cc1 (stereo not drawn)	> 100 µM	> 100 µM	> 100 µM	> 100 µM	> 100 µM	–	> 100 µM	> 100 µM	> 100 µM	–	–	–	–	–	–	–	–	–	–	–
O=C1CCN2CCC(=O)c3c2c(cc2ccccc32)N1	> 100 µM	> 100 µM	> 100 µM	> 100 µM	> 100 µM	> 100 µM	> 100 µM	–	> 100 µM	–	–	–	–	–	–	–	–	–	–	–
COc1cc(/C=C/c2ccc(OC)c(OC)c2OC)cc(OC)c1OC	37 µM	> 87.1 µM	39.3 µM	74.4 µM	18.6 µM	41 µM	55.3 µM	44.9 µM	54.9 µM	–	–	–	–	–	–	–	–	–	–	–
Cc1c(Cl)cccc1NC(=O)/C(Cl)=C(\Cl)C(=O)O	31.7 µM	–	34.1 µM	30.6 µM	35.5 µM	38.4 µM	40.9 µM	31.7 µM	46.5 µM	–	–	–	–	–	–	–	–	–	–	–
CC1=C(/C=C/C(C)=C/C=C/C(C)=C/C=C/C=C(C)/C=C/C=C(C)/C=C/C2=C(C)C(=O)C(O)CC2(C)C)C(C)(C)CC(O)C1=O (stereo not drawn)	> 100 µM	> 100 µM	> 100 µM	> 100 µM	> 100 µM	> 100 µM	> 100 µM	> 100 µM	–	–	–	–	–	–	–	–	–	–	–	–
S=P(N1CCCC1)(N1CC1)N1CC1	> 100 µM	> 100 µM	> 100 µM	> 100 µM	> 100 µM	> 100 µM	> 100 µM	> 100 µM	–	–	–	–	–	–	–	–	–	–	–	–
COc1ccc(N2C(=O)C3c4[nH]c5ccccc5c4C4CCCCCCC4C3C2=O)cc1 (stereo not drawn)	21.5 µM	13 µM	16.8 µM	> 100 µM	> 100 µM	18.6 µM	> 100 µM	3.2 µM	17.1 µM	–	–	–	–	–	–	–	–	–	–	–
CCOC(=O)C1=C(Nc2ccc(Cl)c(Cl)c2)OC/C1=N\NC(=O)Cc1ccccc1	> 100 µM	> 100 µM	> 100 µM	> 100 µM	> 100 µM	> 100 µM	> 100 µM	> 100 µM	> 100 µM	–	–	–	–	–	–	–	–	–	–	–
COc1cc(C2c3cc4c(cc3[C@@H](N(C)C)[C@H]3COC(=O)C23)OCO4)cc(OC)c1O (stereo partly drawn)	53.8 µM	80.1 µM	–	> 100 µM	> 100 µM	> 100 µM	54.1 µM	–	> 100 µM	–	–	–	–	–	–	–	–	–	–	–
Cc1c(C(=O)CC(=O)C(=O)Nc2cc(Cl)ccc2Cl)[n+](=O)c2ccccc2n1[O-]	> 100 µM	> 100 µM	61 µM	> 100 µM	> 100 µM	69.4 µM	> 100 µM	> 100 µM	> 100 µM	–	–	–	–	–	–	–	–	–	–	–
Clc1ccc2ns[s+]c2c1	37.8 µM	> 100 µM	> 100 µM	> 100 µM	> 100 µM	> 100 µM	> 100 µM	> 100 µM	> 100 µM	> 100 µM	–	–	–	–	–	–	–	–	–	–
CC1(O)CCC2(C)C(=O)C1(C)CCC21OCCO1 (stereo not drawn)	> 100 µM	> 100 µM	> 100 µM	> 100 µM	> 100 µM	> 100 µM	–	> 100 µM	> 100 µM	–	–	–	–	–	–	–	–	–	–	–
CN1C(=O)C2C=CC1C1CCC2N(C)C1=O (stereo not drawn)	> 100 µM	> 100 µM	> 100 µM	> 100 µM	> 100 µM	> 100 µM	–	> 100 µM	> 100 µM	–	–	–	–	–	–	–	–	–	–	–
CCC[CH2][Sn]1([CH2]CCC)[O]C(=O)c2ccc(N)cc2[O]1	1.94 µM	2.49 µM	2.52 µM	3.3 µM	2.48 µM	2.56 µM	3.17 µM	2.18 µM	0.248 µM	0.738 µM	0.691 µM	0.909 µM	0.997 µM	1.24 µM	1.77 µM	0.855 µM	1.04 µM	0.0365 µM	1.57 µM	0.152 µM
O=C(CSc1nc(-c2ccccc2)c(-c2ccccc2)[nH]1)NNC(=S)Nc1ccccc1	> 100 µM	> 100 µM	> 100 µM	> 100 µM	> 100 µM	> 100 µM	> 100 µM	–	> 100 µM	–	–	–	–	–	–	–	–	–	–	–

Structure (SMILES)	TGI [1]	TGI [2]	TGI [3]	TGI [4]	TGI [5]	TGI [6]	TGI [7]	TGI [8]	TGI [9]	TGI [10]	GI50 [1]	GI50 [2]	GI50 [8]	GI50 [3]	GI50 [4]	GI50 [5]	GI50 [6]	GI50 [9]	GI50 [7]	GI50 [10]
COC(=O)[C@]1(C)C(OC)=CC(=O)C2C1[C@H]1CCC[C@@H]21 (stereo partly drawn)	> 100 µM	> 100 µM	> 100 µM	> 100 µM	> 100 µM	–	> 100 µM	> 100 µM	> 100 µM	–	–	–	–	–	–	–	–	–	–	–
COc1c(Sc2ccccc2)cc(Sc2ccccc2)c2cccnc12	85.5 µM	> 100 µM	61.2 µM	> 100 µM	> 100 µM	49.3 µM	50.2 µM	–	> 100 µM	–	–	–	–	–	–	–	–	–	–	–
O=C(O)Cc1ccccc1CCc1ccccc1Cl	> 100 µM	> 100 µM	> 100 µM	> 100 µM	> 100 µM	> 100 µM	> 100 µM	> 100 µM	> 100 µM	–	–	–	–	–	–	–	–	–	–	–
O=c1cc(-c2ccccn2)[nH]c2cc(F)ccc12	> 100 µM	> 100 µM	> 100 µM	> 100 µM	> 100 µM	–	> 100 µM	> 100 µM	> 100 µM	–	–	–	–	–	–	–	–	–	–	–
CS(=O)(=O)NNS(=O)(=O)c1ccc(Cl)cc1	> 100 µM	> 100 µM	> 100 µM	–	> 100 µM	> 100 µM	> 100 µM	–	> 100 µM	–	–	–	–	–	–	–	–	–	–	–
COC(=O)c1ccc(C(=O)OC)c2nc3cc(C)ccc3nc12	> 100 µM	> 100 µM	> 100 µM	> 100 µM	> 100 µM	> 100 µM	> 100 µM	> 100 µM	> 100 µM	–	–	–	–	–	–	–	–	–	–	–
CCCCCCCCCCCCCC(=O)NCC(OCC)OCC	> 100 µM	> 100 µM	> 100 µM	> 100 µM	> 100 µM	> 100 µM	> 100 µM	> 100 µM	> 100 µM	–	–	–	–	–	–	–	–	–	–	–
Nc1cc2[nH]cnc2c(=O)[nH]1	> 234 µM	> 300 µM	92.4 µM	> 289 µM	> 300 µM	> 146 µM	> 300 µM	> 300 µM	–	> 300 µM	–	–	–	–	–	–	–	–	–	–
COc1cc(C2c3cc4c(cc3[C@@H](OCCN(C)C)C3COC(=O)[C@H]23)OCO4)cc(OC)c1O (stereo partly drawn)	0.702 µM	2.17 µM	5.15 µM	4.26 µM	–	0.632 µM	5.14 µM	4.36 µM	31.7 µM	–	–	–	–	–	–	–	–	–	–	–
COC(=O)C1Cc2c([nH]c3ccccc23)C(c2ccccc2O)N1Cc1ccccc1 (stereo not drawn)	65.2 µM	> 46.4 µM	39.2 µM	> 46.4 µM	> 31.6 µM	> 31.6 µM	> 46.4 µM	> 46.4 µM	43.9 µM	–	–	–	–	–	–	–	–	–	–	–
COC(=O)[C@H]1N[C@@H](C(=O)OC)C23CCC[C@H]2CC[C@]1(C(OC)OC)C3	> 100 µM	> 100 µM	–	> 100 µM	> 100 µM	> 100 µM	> 100 µM	> 100 µM	> 100 µM	–	–	–	–	–	–	–	–	–	–	–
CC(/C=C/NNC1=NC(c2ccccc2)C(c2ccccc2)=NN1)Sc1ccccc1N (stereo not drawn)	20.9 µM	19.5 µM	22 µM	31.3 µM	29.9 µM	22.9 µM	23.2 µM	–	15.5 µM	–	–	–	–	–	–	–	–	–	–	–
COc1ccccc1NC(=O)C1=C(C)NC(C)=C(C(=O)Nc2ccccc2OC)C1c1ccc(N(C)C)cc1	73.7 µM	77.3 µM	44.1 µM	> 100 µM	38.2 µM	–	96.8 µM	–	> 100 µM	–	–	–	–	–	–	–	–	–	–	–
COC(=O)[C@]1(C)CCC[C@@]2(C)[C@@H]3C[C@@H]4[C@H]5C[C@@]3(CC[C@@H]21)C[C@@]45C	38.7 µM	30.6 µM	32.7 µM	34.2 µM	31 µM	–	–	–	–	30.3 µM	–	–	–	–	–	–	–	–	–	–
Cc1nn(CNc2ccccc2C(F)(F)F)c(=S)n1/N=C/c1ccc(F)cc1	> 100 µM	> 100 µM	> 100 µM	> 100 µM	> 100 µM	–	–	–	–	> 100 µM	> 100 µM	> 100 µM	–	> 100 µM	73 µM	> 100 µM	–	–	–	60.3 µM
COc1ccc([C@@H](O)c2cc(-c3ncnc4cc(N5CCOCC5)ccc34)c(F)cc2Cl)nn1	12.7 µM	78.4 µM	20.3 µM	> 100 µM	18.7 µM	–	–	–	–	15.7 µM	2.13 µM	5.92 µM	–	1.41 µM	7.2 µM	2.85 µM	–	–	–	0.592 µM
COc1cc(/C=C2\CN(C(=O)CCN3CCC(=NO)CC3)C/C(=C\c3cc(OC)c(OC)c(OC)c3)C2=O)cc(OC)c1OC	0.928 µM	> 35.6 µM	1.26 µM	2.28 µM	0.724 µM	–	–	–	–	2.44 µM	0.277 µM	0.444 µM	–	0.391 µM	0.874 µM	0.34 µM	–	–	–	0.382 µM
NC(=O)c1csc(C2CCC(CO)O2)n1 (stereo not drawn)	> 100 µM	> 100 µM	> 100 µM	> 100 µM	> 100 µM	> 100 µM	> 100 µM	> 100 µM	> 100 µM	–	–	–	–	–	–	–	–	–	–	–
